The values that follow come from patent US7732493B2, “2-substituted D-homo-estra-1,3,5(10)-trienes as inhibitors of 17β-hydroxy steroid dehydrogenase type 1” (Bayer Schering Pharma Aktiengesellschaft, priority 2004, dated 2010).

This test concerns the target T1, human 17β-hydroxy steroid dehydrogenase type 1 (17β-HSD1) (Homo sapiens, UniProt P14061).
T1 construct: made in house; host or cells: E. coli
T1 sequence (P14061 1-328): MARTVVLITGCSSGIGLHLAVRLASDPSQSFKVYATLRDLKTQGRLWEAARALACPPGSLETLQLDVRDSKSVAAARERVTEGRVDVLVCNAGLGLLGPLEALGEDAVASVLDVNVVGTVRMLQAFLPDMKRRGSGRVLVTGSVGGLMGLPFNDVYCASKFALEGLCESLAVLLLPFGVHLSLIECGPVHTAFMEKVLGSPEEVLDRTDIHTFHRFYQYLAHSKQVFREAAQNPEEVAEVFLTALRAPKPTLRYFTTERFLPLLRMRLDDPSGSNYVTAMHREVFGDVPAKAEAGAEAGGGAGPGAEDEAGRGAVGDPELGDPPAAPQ
Description: Inhibition of the activity of human 17β-hydroxy steroid dehydrogenase type 1 (3H-labeled substrate conversion, HPLC). The format is biochemical. The settings on record: human enzyme over-expressed in E. coli, bacterial suspension, 37° C., double determination; read-out: 17βHSD1 IC50. The text has this:
The test process is well described in the literature [Adamski, J., Sierralta, W. D., Jungblut, P. W., Acta Endocrinol (Copenh.) 121(2) (1989), 161-7] and is depicted below.
Human 17β-hydroxy steroid dehydrogenases (17β-HSDs) are over-expressed in E. coli bacteria as His-Tag proteins or as GST-fusion proteins. The suspensions of the bacterial pellets in isotonic common salt solution are used for the determination of enzyme activities of the 17β-HSDs or for the study of their influence by potential inhibitors (estrogen derivatives).
The measurements are made in double determination and, if necessary, at various concentrations of potential inhibitors (e.g., in determining the IC50 values). In addition to the target enzyme 17β-HSD1, other steroid-metabolizing enzymes are included in the test to study cross reactivities of estrogen derivatives.
The incubation of the samples is carried out at 37° C. in a water bath while being shaken, such that in the control (without substances to be tested), a conversion of about 30% is achieved.
The separation of radiolabeled substrate and product is then carried out, after extraction with 1 ml of reversed phase-(RP-18)-cartridges, by means of HPLC on an RP18 column with acetonitrile:water 1:1 (v/v) as a mobile phase. The radioactivity is detected with the aid of a flow-scintillation counter.
The evaluation of the substrate conversion with and without substances to be tested is performed by the integration of the substrate and product peaks. The conversion of the control is normalized to 100% conversion.
The IC50 is the midpoint of a concentration-inhibition curve. Regarding `C=CCc1cc2c(cc1O)CC[C@@H]1[C@@H]2CC[C@]2(C)C(=O)CCC[C@@H]12` [Example 7, 2-Allyl-17a-oxo-17a-homoestra-1,3,5(10)-trien-3-ol], the IC50 worked out at 24 nM.

In the case of “2-Iodo-17a-oxo-17a-homoestra-1,3,5(10)-trien-3-ol [Example 4]”, the IC50 was determined as 52 nM. Turning to “2-Bromo-17a-oxo-17a-homoestra-1,3,5(10)-trien-3-ol [Example 3]”, the IC50 is 52 nM. As to `COc1cc2c(cc1O)CC[C@@H]1[C@@H]2CC[C@]2(C)C(=O)CCC[C@@H]12` [Example 1, 2-Methoxy-17a-oxo-17a-homoestra-1,3,5(10)-trien-3-ol], the IC50 was 85 nM.
